Test results as given in patent publication US11918568B2, “Fused ring compound having urea structure” (DAIICHI SANKYO COMPANY, LIMITED, priority 2018, dated 2024).

Target: human NAMPT enzyme (Homo sapiens (Human), UniProt P43490)
Test: NAMPT enzyme activating effect (in vitro cell-free enzyme assay)
Assay type: biochemical
Conditions: 2 ng/mL human NAMPT enzyme, 1-h incubation at 25° C., fluorescence of NMN derivative
Description: The NAMPT enzyme assay was conducted in accordance with the method of Formentini et al. […] Hereinafter, the procedures will be briefly described. The NAMPT enzyme reaction was carried out using polypropylene 384 well V shaped black plate (Greiner Bio One International GmbH). […] Then, 22 μL of 88% formic acid was added and the mixture was further incubated for 30 min in the dark. The NAMPT enzyme activity was calculated as the difference between fluorescence intensity (Ex 380 nm/Em 450 nm) from the reaction of a test compound treatment group and fluorescence intensity from control reaction free from the NAMPT enzyme. [NAMPT enzyme activity]=[Fluorescence intensity of the test substance treatment group]−[Mean fluorescence intensity of the control reaction free from the NAMPT enzyme] EC50 value of each compound was calculated from the enzyme activities of the compound at various concentrations by using GraphPad Prism software (GraphPad Software) (Table 1)

Chain of human NAMPT enzyme (P43490 whole entry): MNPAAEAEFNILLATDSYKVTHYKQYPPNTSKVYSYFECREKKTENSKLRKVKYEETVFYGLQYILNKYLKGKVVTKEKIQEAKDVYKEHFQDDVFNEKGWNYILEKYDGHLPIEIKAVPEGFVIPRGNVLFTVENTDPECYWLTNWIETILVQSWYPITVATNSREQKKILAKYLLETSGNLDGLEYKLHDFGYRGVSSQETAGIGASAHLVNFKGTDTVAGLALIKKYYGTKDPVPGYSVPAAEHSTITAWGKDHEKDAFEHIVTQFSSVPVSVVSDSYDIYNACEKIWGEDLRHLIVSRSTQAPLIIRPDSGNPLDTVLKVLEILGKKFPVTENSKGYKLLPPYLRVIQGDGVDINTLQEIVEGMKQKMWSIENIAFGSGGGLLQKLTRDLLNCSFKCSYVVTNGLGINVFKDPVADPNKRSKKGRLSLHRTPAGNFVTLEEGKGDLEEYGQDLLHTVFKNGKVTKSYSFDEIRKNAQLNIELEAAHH

| SMILES | EC50 |
| --- | --- |
| CC1(c2nc3ccc(NC(=O)NCc4ccncc4)cc3o2)CC1 [Example 3, N-[2-(1-Methylcyclopropyl)-1,3-benzoxazol-6-yl]-N′-[(pyridin-4-yl)methyl]urea] | 150 nM |
| Cn1cc(-c2nc3ccc(NC(=O)NCc4ccncc4)cc3o2)cn1 [Example 4, N-[2-(1-Methyl-1H-pyrazol-4-yl)-1,3-benzoxazol-6-yl]-N′-[(pyridin-4-yl)methyl]urea] | 980 nM |
| O=C(NCc1cnco1)Nc1ccc2nc(-c3ccccc3)nn2c1 [Example 10, N-[(1,3-Oxazol-5-yl)methyl]-N′-(2-phenyl[1,2,4]triazolo[1,5-a]pyridin-6-yl) urea] | 140 nM |
| O=C(NCc1ccncc1)Nc1ccc2nc(-c3cccn3-c3ccccc3)nn2c1 [Example 12, N-[2-(1-Phenyl-1H-pyrrol-2-yl)[1,2,4]triazolo[1,5-a]pyridin-6-yl]-N′-[(pyridin-4-yl)methyl]urea] | 230 nM |
| O=C(NCc1ccncc1)Nc1ccc2nc(-c3ccccc3C(F)(F)F)nn2c1 [Example 14, N-[(Pyridin-4-yl)methyl]-N′-{2-[2-(trifluoromethyl)phenyl][1,2,4]triazolo[1,5-a]pyridin-6-yl}urea] | 180 nM |
| CCC(=O)N1CC(c2ccccc2)COc2cc(NC(=O)NCc3ccncc3)ccc21 (stereo not shown) [Example 19, N-(3-Phenyl-5-propanoyl-2,3,4,5-tetrahydro-1,5-benzoxazepin-8-yl)-N′-[(pyridin-4-yl)methyl]urea] | 380 nM |
| CN(C)C(=O)c1c(-c2ccccc2)nn2cc(NC(=O)NCc3ccncc3)cc(F)c12 [Example 20, 4-Fluoro-N,N-dimethyl-2-phenyl-6-({[(pyridin-4-yl)methyl]carbamoyl}amino)pyrazolo[1,5-a]pyridine-3-carboxamide] | 160 nM |
| CN(C)C(=O)c1c(-c2ccccc2)nn2cc(NC(=O)NCc3ccncc3)ccc12 [Example 23, N,N-Dimethyl-2-phenyl-6-({[(pyridin-4-yl)methyl]carbamoyl}amino)pyrazolo[1,5-a]pyridine-3-carboxamide] | 110 nM |

Continued by falling EC50, values first:

| EC50 | SMILES |
| --- | --- |
| 110 nM | O=C(NCc1cnco1)Nc1ccc2nc(-c3ccccc3)oc2c1 [Example 5, N-[(1,3-Oxazol-5-yl)methyl]-N′-(2-phenyl-1,3-benzoxazol-6-yl)urea] |
| 110 nM | O=C(NCc1ccncc1)Nc1ccc2c(C(=O)N3CCCC3)n(-c3ccccc3)nc2c1 [Example 17, N-[2-Phenyl-3-(pyrrolidine-1-carbonyl)-2H-indazol-6-yl]-N′-[(pyridin-4-yl)methyl]urea] |
| 80 nM | COc1cccc([C@H]2Oc3cc(NC(=O)NCc4ccncc4)ccc3[C@@H]2C)c1 (relative stereo) [Example 53, N-[(2S*,3S*)-2-(3-Methoxyphenyl)-3-methyl-2,3-dihydro-1-benzofuran-6-yl]-N′-[(pyridin-4-yl)methyl]urea] |
| 70 nM | Cc1c(-c2ccccc2)nn2cc(NC(=O)NCc3ccncc3)ccc12 [Example 25, N-(3-Methyl-2-phenylpyrazolo[1,5-a]pyridin-6-yl)-N′-[(pyridin-4-yl)methyl]urea] |
| 50 nM | CCN(CC)C(=O)c1c2ccc(NC(=O)NCc3ccncc3)cc2nn1-c1ccccc1 [Example 18, N,N-Diethyl-2-phenyl-6-({[(pyridin-4-yl)methyl]carbamoyl}amino)-2H-indazole-3-carboxamide] |
| 50 nM | N#Cc1c(-c2ccccc2)nn2cc(NC(=O)NCc3ccncc3)ccc12 [Example 24, N-(3-Cyano-2-phenylpyrazolo[1,5-a]pyridin-6-yl)-N′-[(pyridin-4-yl)methyl]urea] |
| 20 nM | CCCCc1ccccc1-c1nc2ccc(NC(=O)NCc3ccncc3)cn2n1 [Example 11, N-[2-(2-Butylphenyl)[1,2,4]triazolo[1,5-a]pyridin-6-yl]-N′-[(pyridin-4-yl)methyl]urea] |
| 10 nM | O=C(NCc1ccncc1)Nc1cc2oc(-c3ccccc3)nc2cc1F [Example 6, N-(5-Fluoro-2-phenyl-1,3-benzoxazol-6-yl)-N′-[(pyridin-4-yl)methyl]urea] |
